The target of one test is T1, B-RAF V600E (Homo sapiens, UniProt P15056, V600E).
T1 construct: expressed in transfected cells; host or cells: T-Rex 293 cells (Invitrogen #R71007)
Kind of test: Target protein degradation, assay C: T-Rex 293 cells, HA-BRAF_V600E, 384 well format. Particulars: T-Rex 293 HA-BRAF_V600E cells, 24 hours, Examples 83-269; for DC50: Assay C; for Dmax: T-REx-293, Assay C. It is filed as cell-based. Put shortly: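 T-Rex 293 cells stably expressing doxycycline-induced (1 ng/mL) HA-BRAF V600E were treated 24 h at 37 °C with compound (300 nM–5 pM, 11 points, 0.5% DMSO). HA immunofluorescence was quantified by high-content imaging to give DC50 and Dmax (% of control); nuclei counts versus DMSO gauged toxicity.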

In another test the target is T2, B-RAF G466V (Homo sapiens, UniProt P15056, G466V).
T2 construct: expressed in transfected cells; host or cells: T-Rex 293 cells (Invitrogen #R71007)
Briefly: Target protein degradation, assay D: T-Rex 293 cells, HA-BRAF_G466V, 384 well format. Particulars: T-Rex 293 HA-BRAF_G466V cells, 24 hours, Examples 83-269; for DC50: Assay D; for Dmax: T-REx-293, Assay D. It is filed as cell-based. In short, it runs like this: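 T-Rex 293 cells stably expressing doxycycline-induced (1 ng/mL) HA-BRAF G466V treated 24 h at 37 °C with PROTACs, 11-point 1:3 dilution, 300 nM to 5 pM final, 0.5% DMSO. Fixed cells immunostained for HA and imaged by high-content microscopy; DC50 and Dmax (% of control) derived, toxicity from nuclei counts versus DMSO.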

Each structure is given as a SMILES string.

T1 sequence (P15056 whole entry V600E): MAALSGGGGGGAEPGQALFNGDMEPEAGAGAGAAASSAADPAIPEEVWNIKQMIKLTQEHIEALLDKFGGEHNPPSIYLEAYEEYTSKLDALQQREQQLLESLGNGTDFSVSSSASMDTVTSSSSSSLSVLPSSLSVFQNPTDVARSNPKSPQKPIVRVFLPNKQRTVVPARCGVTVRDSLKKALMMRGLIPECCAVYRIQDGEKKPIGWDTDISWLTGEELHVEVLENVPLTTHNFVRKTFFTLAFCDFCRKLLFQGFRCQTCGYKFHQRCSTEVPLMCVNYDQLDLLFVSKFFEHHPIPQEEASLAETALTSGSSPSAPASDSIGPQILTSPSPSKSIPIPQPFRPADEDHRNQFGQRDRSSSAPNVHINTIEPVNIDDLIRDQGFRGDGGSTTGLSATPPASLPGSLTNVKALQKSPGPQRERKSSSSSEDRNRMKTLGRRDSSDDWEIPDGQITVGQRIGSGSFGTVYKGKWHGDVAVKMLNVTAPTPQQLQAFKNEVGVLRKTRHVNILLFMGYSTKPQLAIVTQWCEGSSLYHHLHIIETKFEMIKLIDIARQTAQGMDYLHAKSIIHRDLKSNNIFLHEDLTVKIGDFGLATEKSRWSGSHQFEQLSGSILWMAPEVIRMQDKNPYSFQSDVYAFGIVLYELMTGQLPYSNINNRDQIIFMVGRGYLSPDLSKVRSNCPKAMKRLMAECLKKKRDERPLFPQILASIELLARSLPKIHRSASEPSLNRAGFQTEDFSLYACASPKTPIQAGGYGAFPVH
T2 sequence (P15056 whole entry G466V): as the sequence (P15056 whole entry V600E) above, with G466V, E600V counted along it

In the case of `N#Cc1c(NS(=O)(=O)N2CC[C@@H](F)C2)ccc(F)c1Oc1ccc2ncn(-c3ccc(N4CCC(CN5CCN(c6ccc7c(c6)CN([C@H]6CCC(=O)NC6=O)C7=O)CC5)C4)cc3)c(=O)c2c1` (stereo partly drawn) [Example 217, (3R)-N-(2-cyano-3-{[3-(4-{3-[(4-{2-[(3S)-2,6-dioxopiperidin-3-yl]-1-oxo-2,3-dihydro-1H-isoindol-5-yl}piperazin-1-yl)methyl]pyrrolidin-1-yl}phenyl)-4-oxo-3,4-dihydroquinazolin-6-yl]oxy}-4-fluorophenyl)-3-fluoropyrrolidine-1-sulfonamide], on B-RAF V600E, the DC50 is 50 to 500 nM and the Dmax is 35 to 70%. Also, on B-RAF G466V, the DC50 lay within 1 to 10 nM and the Dmax is ≤ 35%.
As to `N#Cc1c(NS(=O)(=O)N2CC[C@@H](F)C2)ccc(F)c1Oc1ccc2ncn(-c3ccc(N4CCN(CC5CCN(c6ccc7c(c6F)CN([C@H]6CCC(=O)NC6=O)C7=O)CC5)CC4)cn3)c(=O)c2c1` [Example 114, (3R)-N-(2-cyano-3-{[3-(5-{4-[(1-{2-[(3S)-2,6-dioxopiperidin-3-yl]-4-fluoro-1-oxo-2,3-dihydro-1H-isoindol-5-yl}piperidin-4-yl)methyl]piperazin-1-yl}pyridin-2-yl)-4-oxo-3,4-dihydroquinazolin-6-yl]oxy}-4-fluorophenyl)-3-fluoropyrrolidine-1-sulfonamide], at B-RAF V600E, the DC50 was in the range of 50 to 500 nM and the greatest degradation seen (Dmax) is ≤ 35%. On B-RAF G466V, this molecule displayed a DC50 of 1 to 10 nM and a Dmax of 35 to 70%.
On to `CC(C)(C1CCN(c2ncc(-n3cnc4ccc(Oc5c(F)ccc(NS(=O)(=O)N6CC[C@@H](F)C6)c5C#N)cc4c3=O)cn2)CC1)N1CCN(c2ccc3c(c2)C(=O)N(C2CCC(=O)NC2=O)C3=O)CC1` (stereo partly drawn) [Example 152, (3R)-N-{2-cyano-3-[(3-{2-[4-(2-{4-[2-(2,6-dioxopiperidin-3-yl)-1,3-dioxo-2,3-dihydro-1H-isoindol-5-yl]piperazin-1-yl}propan-2-yl)piperidin-1-yl]pyrimidin-5-yl}-4-oxo-3,4-dihydroquinazolin-6-yl)oxy]-4-fluorophenyl}-3-fluoropyrrolidine-1-sulfonamide], for which, on B-RAF V600E, the DC50 lay in the range of 50 to 500 nM and the Dmax was in the range of 35 to 70%. Besides, at B-RAF G466V, the DC50 was in the range of 1 to 10 nM and the Dmax is ≤ 35%.
In the same order, the values of `N#Cc1c(NS(=O)(=O)N2CC[C@@H](F)C2)ccc(F)c1Oc1ccc2ncn(-c3cnc(N4CCN(CC5CCN(c6ccc7c(c6)CN(C6CCC(=O)NC6=O)C7=O)CC5)CC4)cn3)c(=O)c2c1` (stereo partly drawn) [Example 89, (3R)-N-{2-cyano-3-[(3-(5-[4-({1-[2-(2,6-dioxopiperidin-3-yl)-1-oxo-2,3-dihydro-1H-isoindol-5-yl]piperidin-4-yl}methyl)piperazin-1-yl]pyrazin-2-yl}-4-oxo-3,4-dihydroquinazolin-6-yl)oxy]-4-fluorophenyl}-3-fluoropyrrolidine-1-sulfonamide] are 5 to 50 nM, 35 to 70%, 1 to 10 nM and ≤ 35%.
Regarding `N#Cc1c(NS(=O)(=O)N2CCC(F)C2)ccc(F)c1Oc1ccc2ncn(-c3ccc(N4CCN(CC5CN(c6ccc7c(c6)CN(C6CCC(=O)NC6=O)C7=O)C5)CC4)cc3)c(=O)c2c1` (centres unmarked) [Example 194, N-{2-cyano-3-[(3-{4-[4-({1-[2-(2,6-dioxopiperidin-3-yl)-1-oxo-2,3-dihydro-1H-isoindol-5-yl]azetidin-3-yl}methyl)piperazin-1-yl]phenyl}-4-oxo-3,4-dihydroquinazolin-6-yl)oxy]-4-fluorophenyl}-3-fluoropyrrolidine-1-sulfonamide], on B-RAF V600E, the DC50 is 50 to 500 nM and the Dmax was ≤ 35%. At B-RAF G466V, the DC50 is 1 to 10 nM and the Dmax was 35 to 70%.
Consider `COc1cc(N2CCN(c3ccc(-n4cnc5ccc(Oc6c(F)ccc(NS(=O)(=O)N7CC[C@@H](F)C7)c6C#N)cc5c4=O)cn3)CC2)cc2c1C(=O)N(C1CCC(=O)NC1=O)C2=O` (stereo partly drawn) [Example 139, (3R)-N-(2-cyano-3-{[3-(6-{4-[2-(2,6-dioxopiperidin-3-yl)-7-methoxy-1,3-dioxo-2,3-dihydro-1H-isoindol-5-yl]piperazin-1-yl}pyridin-3-yl)-4-oxo-3,4-dihydroquinazolin-6-yl]oxy}-4-fluorophenyl)-3-fluoropyrrolidine-1-sulfonamide], for which the DC50 was 5 to 50 nM on B-RAF V600E and > 30 nM on B-RAF G466V. The Dmax on B-RAF V600E is ≤ 35%.
For `N#Cc1c(NS(=O)(=O)N2CC[C@@H](F)C2)ccc(F)c1Oc1ccc2ncn(-c3ccc(C4CCN(CC5CCN(c6ccc7c(c6)CN([C@H]6CCC(=O)NC6=O)C7=O)CC5)C4)cc3)c(=O)c2c1` (stereo partly drawn) [Example 208, (3R)-N-(2-cyano-3-{[3-(4-{1-[(1-{2-[(3S)-2,6-dioxopiperidin-3-yl]-1-oxo-2,3-dihydro-1H-isoindol-5-yl}piperidin-4-yl)methyl]pyrrolidin-3-yl}phenyl)-4-oxo-3,4-dihydroquinazolin-6-yl]oxy}-4-fluorophenyl)-3-fluoropyrrolidine-1-sulfonamide], on B-RAF V600E, the DC50 fell in the range of 5 to 50 nM and the Dmax is 35 to 70%. Besides, at B-RAF G466V, the DC50 fell in the range of 1 to 10 nM and the Dmax was ≤ 35%.
Take `N#Cc1c(NS(=O)(=O)N2CC[C@@H](F)C2)ccc(F)c1Oc1ccc2ncn(-c3ccc(N4CCC(O[C@H]5C[C@H](N6CCC(c7ccc8c(c7)CN(C7CCC(=O)NC7=O)C8=O)CC6)C5)CC4)cc3)c(=O)c2c1` (stereo partly drawn) [Example 253, (3R)-N-(2-cyano-4-fluoro-3-{[4-oxo-3-(4-{4-[(1r,3r)-3-{4-[2-(2,6-dioxopiperidin-3-yl)-1-oxo-2,3-dihydro-1H-isoindol-5-yl]piperidin-1-yl}cyclobutoxy]piperidin-1-yl}phenyl)-3,4-dihydroquinazolin-6-yl]oxy}phenyl)-3-fluoropyrrolidine-1-sulfonamide]: the DC50 lay in the range of 50 to 500 nM on B-RAF V600E and 1 to 10 nM on B-RAF G466V. For the same molecule, the Dmax on B-RAF V600E and at B-RAF G466V was 35 to 70% each time.
`N#Cc1c(NS(=O)(=O)N2CC[C@@H](F)C2)ccc(F)c1Oc1ccc2ncn(-c3ccc(N4CCN(CCN5CCC(c6ccc7c(c6)CN(C6CCC(=O)NC6=O)C7=O)CC5)CC4)cc3)c(=O)c2c1` (stereo partly drawn) [Example 176, (3R)—N-{2-cyano-3-[(3-{4-[4-(2-{4-[2-(2,6-dioxopiperidin-3-yl)-1-oxo-2,3-dihydro-1H-isoindol-5-yl]piperidin-1-yl}ethyl)piperazin-1-yl]phenyl}-4-oxo-3,4-dihydroquinazolin-6-yl)oxy]-4-fluorophenyl}-3-fluoropyrrolidine-1-sulfonamide]: on B-RAF V600E, the DC50 lay in the range of 50 to 500 nM and the Dmax is 35 to 70%. On B-RAF G466V, this molecule came in with a DC50 of 1 to 10 nM and a Dmax of 35 to 70%.
As to `N#Cc1c(NS(=O)(=O)N2CC[C@@H](F)C2)ccc(F)c1Oc1ccc2ncn(-c3ccc(N4CCC5(CCN(c6ccc7c(c6)C(=O)N(C6CCC(=O)NC6=O)C7=O)CC5)CC4)nc3)c(=O)c2c1` (stereo partly drawn) [Example 148, (3R)-N-(2-cyano-3-{[3-(6-{9-[2-(2,6-dioxopiperidin-3-yl)-1,3-dioxo-2,3-dihydro-1H-isoindol-5-yl]-3,9-diazaspiro[5.5]undecan-3-yl}pyridin-3-yl)-4-oxo-3,4-dihydroquinazolin-6-yl]oxy}-4-fluorophenyl)-3-fluoropyrrolidine-1-sulfonamide], the DC50 is 50 to 500 nM at B-RAF V600E and > 30 nM at B-RAF G466V. Also, at B-RAF V600E, the Dmax is ≤ 35%.

The values above are taken from US11957759B1, “Rapidly accelerated fibrosarcoma (RAF) degrading compounds and associated methods of use” (Arvinas Operations, Inc., priority 2022, dated 2024).
